{"source": "ChEMBL document CHEMBL5042500", "about": "(J Med Chem, 2022)", "key": {"[1]": {"experiment": "Half life in C57BL/6 mouse plasma at 3 mg/kg, iv", "type": "ADME, organism-based"}, "[2]": {"experiment": "Metabolic stability in human liver microsomes assessed as compound degradation in presence of NADPH measured after 20 mins", "type": "ADME, Microsome", "details": "read-out: Drug degradation"}, "[3]": {"experiment": "Chemical stability of the compound at pH 7.4 measured after 24 hrs", "type": "physicochemical", "details": "buffer, read-out: Stability"}, "Cytochrome P450 3A4 [4]": {"target": "T1, Cytochrome P450 3A4 (Homo sapiens, UniProt P08684)", "T1 sequence (P08684 whole entry)": "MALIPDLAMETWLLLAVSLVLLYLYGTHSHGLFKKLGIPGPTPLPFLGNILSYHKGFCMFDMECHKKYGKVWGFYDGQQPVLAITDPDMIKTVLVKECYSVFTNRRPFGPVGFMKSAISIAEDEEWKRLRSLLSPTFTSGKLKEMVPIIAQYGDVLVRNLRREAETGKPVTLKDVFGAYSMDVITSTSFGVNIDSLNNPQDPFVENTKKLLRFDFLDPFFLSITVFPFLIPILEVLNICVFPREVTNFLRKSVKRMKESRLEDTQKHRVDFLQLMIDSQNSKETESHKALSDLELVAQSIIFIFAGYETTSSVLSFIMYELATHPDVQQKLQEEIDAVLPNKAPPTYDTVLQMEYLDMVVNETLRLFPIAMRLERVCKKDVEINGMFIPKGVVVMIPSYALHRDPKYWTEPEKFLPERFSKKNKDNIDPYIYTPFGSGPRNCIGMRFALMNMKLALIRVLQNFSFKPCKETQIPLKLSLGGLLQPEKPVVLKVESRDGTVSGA", "experiment": "Inhibition of CYP3A4 in human liver microsomes using testosterone as substrate incubated for 30 mins by LC-MS/MS analysis", "type": "ADME"}, "[5]": {"experiment": "AUC (0 to 24 hrs) in Lewis rat femoral head cartilage at 30 mg/kg, po measured after 8 hrs", "type": "ADME, organism-based, Femur", "set-up": "route oral, dose 30 mg/kg, time 8 hrs"}, "CYP3A4": {"target": "CYP3A4 (Homo sapiens, UniProt P08684)", "sequence (P08684 whole entry)": "as above", "experiment": "Inhibition of CYP3A4 in human liver microsomes by measuring maximum efficacy", "type": "ADME"}, "[6]": {"experiment": "Inhibition of rat SGK1 in presence 500 uM presence of ATP"}, "[7]": {"experiment": "Cmax in Lewis rat plasma at 30 mg/kg, po measured after 8 hrs", "type": "ADME, organism-based", "set-up": "route oral, time 8 hrs, dose 30 mg/kg"}, "[8]": {"experiment": "Aqueous solubility of the compound at pH 7.4", "type": "physicochemical"}, "[9]": {"experiment": "Cmax in Lewis rat femoral head cartilage at 30 mg/kg, po measured after 8 hrs", "type": "ADME, organism-based, Femur", "set-up": "route oral, time 8 hrs, dose 30 mg/kg"}, "[10]": {"target": "T2, Serine/threonine-protein kinase Sgk1 (Homo sapiens, UniProt O00141)", "T2 sequence (O00141 whole entry)": "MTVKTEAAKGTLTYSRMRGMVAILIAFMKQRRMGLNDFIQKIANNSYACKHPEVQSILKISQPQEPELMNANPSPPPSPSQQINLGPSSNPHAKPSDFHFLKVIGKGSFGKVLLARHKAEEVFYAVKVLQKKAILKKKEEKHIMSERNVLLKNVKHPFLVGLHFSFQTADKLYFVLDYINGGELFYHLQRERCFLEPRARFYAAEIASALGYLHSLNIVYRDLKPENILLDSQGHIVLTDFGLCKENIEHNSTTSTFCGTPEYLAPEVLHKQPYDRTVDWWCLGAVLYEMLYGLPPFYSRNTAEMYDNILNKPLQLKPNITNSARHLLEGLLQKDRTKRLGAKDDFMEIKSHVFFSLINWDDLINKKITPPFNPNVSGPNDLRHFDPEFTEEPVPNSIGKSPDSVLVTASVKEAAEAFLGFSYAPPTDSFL", "experiment": "Inhibition of recombinant human SGK1 expressed in baculovirus expression system using 5-carboxyfluorescein -RPRAATF-NH2 as substrate preincubated for 30 mins followed by substrate addition in presence of 10 uM ATP and measured after 60 mins by microfluidics assay"}, "[11]": {"experiment": "AUC (0 to 24 hrs) in C57BL/6 mouse at 3 mg/kg, iv", "type": "ADME, organism-based", "set-up": "time < 24 hr, route intravenous, dose 3 mg/kg", "details": "in vivo"}, "[12]": {"experiment": "Metabolic stability in Sprague-Dawley rat liver microsomes assessed as compound degradation in presence of NADPH measured after 20 mins", "type": "ADME, Microsome", "details": "read-out: Drug degradation"}, "[13]": {"experiment": "Metabolic stability in CD1 mouse liver microsomes assessed as compound degradation in presence of NADPH measured after 20 mins", "type": "ADME, Microsome", "details": "read-out: Drug degradation"}, "Salmonella typhimurium [14]": {"test_system": "Salmonella typhimurium", "experiment": "Mutagenicity in Salmonella typhimurium […] in presence of S9 fraction by ames test", "type": "toxicity, organism-based", "details": "salmonella enterica subsp. enterica serovar typhimurium"}, "[15]": {"experiment": "Ratio of AUC(0 to 24 hrs) in femoral head to plasma in rat measured after 1 hrs", "type": "ADME, Bone/Plasma", "details": "read-out: Selectivity ratio"}, "[16]": {"experiment": "Initial plasma concentration in C57BL/6 mouse at 3 mg/kg, iv", "type": "ADME, organism-based"}, "[17]": {"experiment": "Tmax in Lewis rat plasma at 30 mg/kg, po measured after 8 hrs", "type": "ADME, organism-based"}, "[18]": {"experiment": "Permeability in human Caco2 cells at 20 uM incubated for 120 mins by ESI-MS/MS analysis", "type": "ADME, cell-based", "details": "Caco-2, read-out: permeability"}, "hERG (KCNH2) [19]": {"target": "T3, hERG (KCNH2) (Homo sapiens, UniProt Q12809)", "T3 sequence (Q12809 whole entry)": "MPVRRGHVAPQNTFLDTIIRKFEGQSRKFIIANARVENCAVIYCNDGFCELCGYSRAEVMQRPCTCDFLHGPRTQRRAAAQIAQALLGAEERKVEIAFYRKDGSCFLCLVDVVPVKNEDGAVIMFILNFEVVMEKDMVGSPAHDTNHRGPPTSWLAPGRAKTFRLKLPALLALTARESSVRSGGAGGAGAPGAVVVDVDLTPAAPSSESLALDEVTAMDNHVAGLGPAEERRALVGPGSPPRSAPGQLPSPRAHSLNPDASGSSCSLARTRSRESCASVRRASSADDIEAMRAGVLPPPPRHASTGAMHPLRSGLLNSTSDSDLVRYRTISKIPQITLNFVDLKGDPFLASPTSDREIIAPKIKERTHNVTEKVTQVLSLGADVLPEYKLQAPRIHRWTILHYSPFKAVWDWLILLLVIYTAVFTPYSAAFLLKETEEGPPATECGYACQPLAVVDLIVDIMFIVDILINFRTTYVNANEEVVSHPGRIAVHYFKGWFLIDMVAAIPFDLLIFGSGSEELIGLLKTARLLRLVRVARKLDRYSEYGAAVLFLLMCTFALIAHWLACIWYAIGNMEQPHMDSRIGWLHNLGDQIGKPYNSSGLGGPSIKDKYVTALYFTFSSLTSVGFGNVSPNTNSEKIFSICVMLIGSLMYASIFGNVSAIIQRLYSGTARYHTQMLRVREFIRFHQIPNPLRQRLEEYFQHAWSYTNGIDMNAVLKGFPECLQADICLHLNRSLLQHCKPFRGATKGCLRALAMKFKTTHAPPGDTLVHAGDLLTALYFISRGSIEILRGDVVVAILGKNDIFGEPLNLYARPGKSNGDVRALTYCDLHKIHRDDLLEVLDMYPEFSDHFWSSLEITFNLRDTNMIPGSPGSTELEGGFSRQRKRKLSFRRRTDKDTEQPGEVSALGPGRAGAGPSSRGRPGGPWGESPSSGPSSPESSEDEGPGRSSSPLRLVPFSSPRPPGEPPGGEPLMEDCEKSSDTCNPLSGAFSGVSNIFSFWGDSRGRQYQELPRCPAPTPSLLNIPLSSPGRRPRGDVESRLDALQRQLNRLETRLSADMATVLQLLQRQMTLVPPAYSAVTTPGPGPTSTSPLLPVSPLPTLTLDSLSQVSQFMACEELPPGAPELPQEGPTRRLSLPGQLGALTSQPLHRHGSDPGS", "experiment": "Inhibition of human ERG at 1 uM relative to control", "type": "toxicity"}, "[20]": {"experiment": "Oral bioavailability in C57BL/6 mouse at 30 mg/kg", "type": "ADME, organism-based", "details": "in vivo"}, "[21]": {"experiment": "Cmax in C57BL/6 mouse plasma at 30 mg/kg, po measured after 8 hrs", "type": "ADME, organism-based", "set-up": "route oral, time 8 hrs, dose 30 mg/kg"}, "[22]": {"target": "Ribosomal protein S6 kinase alpha-1 (Homo sapiens) (UniProt Q15418)", "sequence (Q15418 whole entry)": "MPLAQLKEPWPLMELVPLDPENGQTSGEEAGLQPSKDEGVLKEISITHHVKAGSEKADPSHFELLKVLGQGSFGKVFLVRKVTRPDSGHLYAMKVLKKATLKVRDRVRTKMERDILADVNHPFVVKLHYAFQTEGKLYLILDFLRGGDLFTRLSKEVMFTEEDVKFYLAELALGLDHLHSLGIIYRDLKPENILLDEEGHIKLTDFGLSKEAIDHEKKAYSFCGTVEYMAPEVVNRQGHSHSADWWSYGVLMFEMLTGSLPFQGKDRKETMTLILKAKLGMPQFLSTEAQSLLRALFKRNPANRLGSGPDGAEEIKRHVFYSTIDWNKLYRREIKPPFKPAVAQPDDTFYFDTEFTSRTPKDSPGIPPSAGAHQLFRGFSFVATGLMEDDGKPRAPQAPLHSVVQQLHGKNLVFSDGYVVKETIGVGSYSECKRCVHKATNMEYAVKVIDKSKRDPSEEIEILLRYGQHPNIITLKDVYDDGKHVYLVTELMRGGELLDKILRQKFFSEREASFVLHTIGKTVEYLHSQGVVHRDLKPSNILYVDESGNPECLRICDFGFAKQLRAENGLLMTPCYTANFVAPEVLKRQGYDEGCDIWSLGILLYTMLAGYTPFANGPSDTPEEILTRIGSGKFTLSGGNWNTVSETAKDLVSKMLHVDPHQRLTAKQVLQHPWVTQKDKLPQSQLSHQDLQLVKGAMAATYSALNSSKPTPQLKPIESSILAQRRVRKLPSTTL", "experiment": "Inhibition of RSK1 kinase (unknown origin) at 0.1 uM"}, "Homo sapiens": {"species_on_record": "Homo sapiens", "experiment": "Inhibition of p70S6Kb kinase (unknown origin) at 0.1 uM"}, "[23]": {"target": "T4, Serine/threonine-protein kinase Sgk1 (Mus musculus, UniProt Q9WVC6)", "T4 sequence (Q9WVC6 whole entry)": "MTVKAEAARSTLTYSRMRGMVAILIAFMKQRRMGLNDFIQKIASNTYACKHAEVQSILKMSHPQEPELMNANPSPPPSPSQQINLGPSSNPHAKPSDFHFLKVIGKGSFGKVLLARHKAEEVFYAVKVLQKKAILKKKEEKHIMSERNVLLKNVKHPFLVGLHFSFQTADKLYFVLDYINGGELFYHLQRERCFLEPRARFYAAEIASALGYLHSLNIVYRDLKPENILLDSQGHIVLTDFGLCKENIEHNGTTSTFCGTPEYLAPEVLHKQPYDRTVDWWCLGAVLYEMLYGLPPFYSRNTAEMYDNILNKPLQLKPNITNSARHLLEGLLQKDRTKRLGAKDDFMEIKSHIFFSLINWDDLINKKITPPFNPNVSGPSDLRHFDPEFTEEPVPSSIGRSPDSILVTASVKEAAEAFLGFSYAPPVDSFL", "experiment": "Inhibition of mouse SGK1 in presence 500 uM presence of ATP"}, "Cytochrome P450 3A4 [24]": {"target": "T1, Cytochrome P450 3A4", "experiment": "Inhibition of CYP3A4 in human liver microsomes using midazolam as substrate incubated for 10 mins by LC-MS/MS analysis", "type": "ADME"}, "[25]": {"experiment": "AUC (0 to 24 hrs) in C57BL/6 mouse at 30 mg/kg, po", "type": "ADME, organism-based", "set-up": "time < 24 hr, route oral, dose 30 mg/kg", "details": "in vivo"}, "[26]": {"experiment": "Distribution coefficient, logD of compound at pH 7.4 by chromatographic analysis", "type": "physicochemical", "details": "octanol/water"}, "hERG (KCNH2) [27]": {"target": "T3, hERG (KCNH2)", "experiment": "Inhibition of human ERG at 10 uM", "type": "toxicity"}, "[28]": {"experiment": "Intrinsic clearance in human hepatocytes assessed per 10^-6 cells", "type": "ADME, cell-based, Hepatocyte"}, "[29]": {"experiment": "Intrinsic clearance in C57BL/6 mouse at 3 mg/kg, iv", "type": "ADME, organism-based", "details": "in vivo"}, "[30]": {"experiment": "Solubility of the compound in FeSSIF at pH 5.0", "type": "physicochemical"}, "[31]": {"experiment": "Tmax in Lewis rat femoral head cartilage at 30 mg/kg, po measured after 8 hrs", "type": "ADME, organism-based, Femur"}, "[32]": {"experiment": "Tmax in C57BL/6 mouse plasma at 30 mg/kg, po", "type": "ADME, organism-based"}, "Salmonella typhimurium [33]": {"test_system": "Salmonella typhimurium", "experiment": "Mutagenicity in Salmonella typhimurium […] by ames test", "type": "toxicity, organism-based", "details": "salmonella enterica subsp. enterica serovar typhimurium"}, "[34]": {"experiment": "AUC (0 to 24 hrs) in Lewis rat plasma at 30 mg/kg, po measured after 8 hrs", "type": "ADME, organism-based", "set-up": "route oral, dose 30 mg/kg, time 8 hrs"}, "[35]": {"target": "T2, Serine/threonine-protein kinase Sgk1", "experiment": "Inhibition of recombinant human SGK1 expressed in baculovirus expression system using 5-carboxyfluorescein -RPRAATF-NH2 as substrate preincubated for 30 mins followed by substrate addition in presence of 500 uM ATP and measured after 60 mins by microfluidics assay"}, "[36]": {"experiment": "Volume of distribution at steady state in C57BL/6 mouse at 3 mg/kg, iv qd", "type": "ADME, organism-based", "details": "in vivo, read-out: Vdss"}, "[37]": {"experiment": "Effect on chondrocyte hypertrophic differentiation mouse ATDC-5 cells assessed as inhibition of […] gene expression incubated for 2 weeks followed by compound added and every 3 days medium is changed measured after 2 weeks by RT-qPCR analysis", "type": "functional, cell-based"}, "[38]": {"experiment": "Ratio of AUC(0 to 24 hrs) in femoral head to plasma in rat measured after 24 hrs", "type": "ADME, Bone/Plasma", "details": "read-out: Selectivity ratio"}, "[39]": {"experiment": "Half life in C57BL/6 mouse plasma at 30 mg/kg, po measured after 8 hrs", "type": "ADME, organism-based"}}, "data": [{"smiles": "Cc1n[nH]c2nc(-c3ccc(NS(=O)(=O)c4cc(Cl)ccc4F)cc3)nc(OC3CCN(C(C)C)CC3)c12", "values": [{"measurement": "half-life", "setting": "[1]", "value": 2.1, "unit": "h"}, {"measurement": "metabolised at 20 min", "setting": "[2]", "value": 9, "unit": "%"}, {"measurement": "remaining at 24 h", "setting": "[3]", "value": 100, "unit": "%"}, {"measurement": "IC50", "setting": "Cytochrome P450 3A4 [4]", "value": "> 30000", "unit": "nM"}, {"measurement": "AUC(0-t) at 8 h", "setting": "[5]", "value": 16900, "unit": "ng·h/mL"}, {"measurement": "Emax", "setting": "CYP3A4", "value": 0, "unit": "%"}, {"measurement": "IC50", "setting": "[6]", "value": 224, "unit": "nM"}, {"measurement": "Cmax", "setting": "[7]", "value": 4200, "unit": "ng/mL"}, {"measurement": "solubility", "setting": "[8]", "value": "< 1", "unit": "µg/mL"}, {"measurement": "Cmax", "setting": "[9]", "value": 1200, "unit": "ng/g"}, {"measurement": "IC50", "setting": "[10]", "value": 2, "unit": "nM"}, {"measurement": "AUC(0-t) at 24 h", "setting": "[11]", "value": 3200, "unit": "ng·h/mL"}, {"measurement": "metabolised at 20 min", "setting": "[12]", "value": 12, "unit": "%"}, {"measurement": "metabolised at 20 min", "setting": "[13]", "value": 15, "unit": "%"}, {"measurement": "Activity", "setting": "Salmonella typhimurium [14]", "value": "Non-Toxic"}, {"measurement": "Kp at 1 h", "setting": "[15]", "value": 0.1}, {"measurement": "C0", "setting": "[16]", "value": 2200, "unit": "ng/mL"}, {"measurement": "Tmax", "setting": "[17]", "value": 8, "unit": "h"}, {"measurement": "Papp at 2 h, 20 µM", "setting": "[18]", "value": 4.6, "unit": "×10⁻⁶ cm/s"}, {"measurement": "inhibition at 1 µM", "setting": "hERG (KCNH2) [19]", "value": 60, "unit": "%"}, {"measurement": "bioavailability", "setting": "[20]", "value": 72, "unit": "%"}, {"measurement": "Cmax", "setting": "[21]", "value": 2200, "unit": "ng/mL"}, {"measurement": "inhibition", "setting": "[22]", "value": 64, "unit": "%"}, {"measurement": "inhibition", "setting": "Homo sapiens", "value": 58, "unit": "%"}, {"measurement": "IC50", "setting": "[23]", "value": 171, "unit": "nM"}, {"measurement": "IC50", "setting": "Cytochrome P450 3A4 [24]", "value": "> 30000", "unit": "nM"}, {"measurement": "AUC(0-t) at 24 h", "setting": "[25]", "value": 22800, "unit": "ng·h/mL"}, {"measurement": "chromatographic logD", "setting": "[26]", "value": 1.3}, {"measurement": "inhibition at 10 µM", "setting": "hERG (KCNH2) [27]", "value": 91, "unit": "%"}, {"measurement": "CLH", "setting": "[28]", "value": 0.042, "unit": "mL/h"}, {"measurement": "CL", "setting": "[29]", "value": 17, "unit": "mL/min/kg"}, {"measurement": "solubility", "setting": "[30]", "value": 281, "unit": "µg/mL"}, {"measurement": "Tmax", "setting": "[31]", "value": 8, "unit": "h"}, {"measurement": "Tmax", "setting": "[32]", "value": 3.3, "unit": "h"}, {"measurement": "Activity", "setting": "Salmonella typhimurium [33]", "value": "Non-Toxic"}, {"measurement": "AUC(0-t) at 8 h", "setting": "[34]", "value": 60100, "unit": "ng·h/mL"}, {"measurement": "IC50", "setting": "[35]", "value": 3, "unit": "nM"}, {"measurement": "Vd", "setting": "[36]", "value": 2.4, "unit": "L/kg"}, {"measurement": "IC50", "setting": "[37]", "value": 70, "unit": "nM"}, {"measurement": "Kp at 24 h", "setting": "[38]", "value": 1.1}, {"measurement": "half-life", "setting": "[39]", "value": 4.8, "unit": "h"}]}]}
